The values below come from article PMC11823609, “Advancements in the fight against globally distributed OXA-48 carbapenemase: evaluating the new generation of carbapenemase inhibitors” (Antimicrobial Agents and Chemotherapy, 2025).

SMILES strings stand for the structures. Values after ≈ are worked out from the molar mass of the structure shown. Read-outs that look alike come from different tables or passages of the source.

Assay [1] deals with E. coli TG1. Kind of assay: microbe, parasite or virus in culture. It counts as cell-based. Conditions: Escherichia coli. Put shortly: (§1)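 Read-out is the MIC, taken from triplicate runs and interpreted by EUCAST 13.0 breakpoints. Strains were E. coli TG1 and the porin-deficient HB4 carrying OXA-48, some also carrying CTX-M-14. Inhibitors were fixed at 4 mg/L beside ertapenem or ceftazidime reporters.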

Assay [2] relates to E. coli TG1 (OXA-48). Kind of assay: microbe, parasite or virus in culture. It counts as cell-based, Escherichia coli. The essentials:
as §1

The subject of assay [3] is E. coli TG1 and HB4 transformants. The experiment in a line: MIC summary over E. coli transformants. Conditions: for effect of ertapenem/BLI on bacterial growth / decrease of ertapenem MIC with BLI: OXA-48-producing E. coli hosts, BLI 4 mg/L; for MICs of inhibitor alone (range over strains): TG1 and HB4 E. coli. In kind it is cell-based, Escherichia coli. From the text: The E. coli HB4 strain was used to gain a more complete perspective, by evaluating the involvement in resistance of a low permeability background with the carbapenemase OXA-48, as well as coproduction of an ESBL and the carbapenemase; thus, the ESBL CTX-M-14 and OXA-48 were cloned together and separately into E. coli HB4. The characteristics of these strains and transformants are summarized in Table S1, and the cloning procedures are outlined in the supplemental methods.
(§2) The MICs of each of the individual compounds (antibiotics or inhibitors) were also determined. The MICs were determined for the E. coli isogenic expressing OXA-48 (and both OXA-48 and CTX-M-14) to assess their activity against the carbapenemase; MICs were also determined for the 18 Enterobacterales clinical isolates in order to evaluate the new inhibitors against also their resistance concomitant mechanisms. The MICs were determined in triplicate experiments, and the EUCAST 13.0 clinical breakpoints were followed (http://www.eucast.org/clinical_breakpoints).
(§3) For comparative evaluation of the activity of each inhibitor alone against the carbapenemase OXA-48, all inhibitors (at 4 mg/L) were tested in the presence of a carbapenem (ertapenem, adequate substrate) and a cephalosporin (ceftazidime, poor substrate) as reporter substrates. This prevented any possible masking effect produced by the different partner antibiotics. These assays were also performed with isogenic transformants and clinical isolates.

Assay [4] concerns OXA-48-producing Enterobacterales clinical isolates. The experiment in a line: MIC summary over clinical isolates. In kind it is cell-based. As for the experimental part: The efficacy of these new BLIs was also evaluated against 18 genetically diverse WGS-characterized collection of OXA-48-positive Enterobacterales recovered as part of the Carbapenem-resistant Enterobacterales Genome Database Project (https://genomes.cnag.cat/incredble) listed in Table S2 ([13]). Combinations of clinical isolates (five pairs of Klebsiella pneumoniae, two pairs of Enterobacter cloacae, and two pairs of E. coli) were chosen for analysis: (i) nine strains carrying ESBLs; and (ii) nine strains (genetically closer available strains) without ESBLs.
as §2, §3

For assay [5], the target named is T1, OXA-48 (Klebsiella pneumoniae, UniProt Q6XEC0). The experiment in a line: Steady-state inhibition constant (Ki app), nitrocefin reporter. It counts as biochemical. On the set-up: These primers amplified the blaOXA-48 gene without the signal peptide; GST (glutathione S-transferase, pGEX-6P-1) (N, cleaved yes); made in house; host or cells: E. coli BL21. Conditions: nitrocefin 300 µM reporter, 25 °C, pH 7.4. As for the experimental part:
(§4) OXA-48 was cloned, produced, and purified following the procedures described in the supplemental methods. The steady-state inhibition constants (Ki app) and kinetics of inhibition (such as k2/K , koff, Kd, and tn) were determined following previously established protocols, are also outlined in the supplemental methods.
(§5) Ki app serves as an equilibrium constant, calculable from […] conditions and indicates the formation of the enzyme acyl E-S complex. […] Plotting the inverse initial velocities (1/V0) against inhibitory concentrations ([I]) facilitated fitting the data to a linear equation. The intersection, divided by the slope of the line, was defined as the observed Ki app.
Ki app (corrected)= Ki app (observed) / [ 1+ ([S]/KmNFC)] (2)

Assay [6] has as its target T1, OXA-48. The experiment in a line: Inhibition efficiency / onset of acylation (k2/K), nitrocefin reporter. It counts as biochemical. On the set-up: These primers amplified the blaOXA-48 gene without the signal peptide; GST (glutathione S-transferase, pGEX-6P-1) (N, cleaved yes); made in house; host or cells: E. coli BL21. Conditions: for kinact/KI: pH 7.4, read-out: k2/K, nitrocefin reporter; for k2/K: nitrocefin reporter. As to the method:
as §4, §5
k2/K = k2/kobs × [([S]/Km NCF) + 1] (3)

Assay [7] deals with T1, OXA-48. Kind of assay: Partition ratio / turnover number (tn), I/E for >90% inhibition. It counts as biochemical. On the set-up: These primers amplified the blaOXA-48 gene without the signal peptide; GST (glutathione S-transferase, pGEX-6P-1) (N, cleaved yes); made in house; host or cells: E. coli BL21. Conditions: 15 min incubation, 500 nM enzyme. As to the method: as §4
The evaluation involved exposure to increasing concentrations of inhibitors plus 500 nM of enzyme, at different molar I/E ratios.

In assay [8] the target is T1, OXA-48. The experiment in a line: Dissociation rate (koff) by jump dilution; t1/2 and Kd. Conditions: for Kd: koff/kon; for residence time: read-out: t1/2 (residence time). It counts as biochemical. On the set-up: These primers amplified the blaOXA-48 gene without the signal peptide; GST (glutathione S-transferase, pGEX-6P-1) (N, cleaved yes); made in house; host or cells: E. coli BL21. As for the experimental part: as §4
The dissociation rate constant (koff) was determined using a “jump dilution” method in which OXA-48 enzyme activity was monitored over time as the BLI dissociates. […] Subsequently, the reaction mixture was diluted 10,000-fold dilution in the reaction buffer. […] Absorbance was recorded at 60-s intervals over a 2-h period at RT. The resulting reaction progress curve was fitted to equation 4, which includes the exponential function (6). […] From the fit, GraphPad Prism software, (MA, USA) also calculates the dissociation half-time (t1/2), in min.
koff was obtained directly from the dissociation experiment and kon was previously calculated, thus finally Kd was calculated as the fraction between koff and kon.
P= Vs x t + (V0-Vs) x [1– exp ^(-k^off x ^t)] / koff (4)

The target in assay [9] is T1, OXA-48. On the set-up: These primers amplified the blaOXA-48 gene without the signal peptide; GST (glutathione S-transferase, pGEX-6P-1) (N, cleaved yes); made in house; host or cells: E. coli BL21; method as in earlier work. Conditions: ref 5 Hecker et al.; cited from earlier work.

T1 sequence (Q6XEC0 23-265 limits assumed): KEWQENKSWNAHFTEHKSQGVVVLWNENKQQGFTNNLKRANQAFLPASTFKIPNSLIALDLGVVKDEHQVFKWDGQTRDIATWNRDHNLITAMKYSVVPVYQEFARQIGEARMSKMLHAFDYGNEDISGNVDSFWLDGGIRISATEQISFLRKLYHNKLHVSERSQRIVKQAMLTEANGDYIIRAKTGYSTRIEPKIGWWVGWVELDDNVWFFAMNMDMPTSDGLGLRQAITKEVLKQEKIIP

As for `NCCONC(=O)[C@@H]1CC[C@@H]2CN1C(=O)N2OS(=O)(=O)O` [Nacubactam, nacubactam], the MIC in assay [1] (β-lactamase inhibitor alone) is 2 µg/mL (≈ 6.17 µM). In addition, the MIC in [2] (Escherichia coli) was 2 µg/mL (≈ 6.17 µM). Further, in assay [3], the “effect of ertapenem/BLI on bacterial growth” value is reported as “totally inhibited bacterial growth” and the “MICs of inhibitor alone (range over strains)” value was in the range of 0.12 to 2 mg/L. Also, the “decrease of meropenem MIC by BLI” value in assay [4] (clinical isolates) was 0–32 fold. For the same molecule, the Ki in [5] is greater than 800000 nM. The kinact/KI in assay [6] worked out at 4.88 ± 2.11 M⁻¹ s⁻¹. In assay [7], the “tn (partition ratio, I:E)” value turned out to be 70. Besides, in assay [8] (jump dilution, read-out: koff), the koff turned out to be 0.0002 s⁻¹. In assay [8], the dissociation constant Kd was determined as 41000 nM and the residence time was determined as 57.7 ± 7.5 min.
In assay [1] (β-lactamase inhibitor alone), `CC1=C[C@@H]2CN(C(=O)N2OS(=O)(=O)O)[C@@H]1C(N)=O` [Durlobactam, durlobactam] showed an MIC of 0.12 µg/mL (≈ 0.433 µM). For the same molecule, the MIC in assay [2] (Escherichia coli) is 0.12 µg/mL (≈ 0.433 µM). For the same molecule, in assay [3], the “effect of ertapenem/BLI on bacterial growth” value is “totally inhibited bacterial growth” and the “MICs of inhibitor alone (range over strains)” value was in the range of 0.12 to 2 mg/L. Further, the “MIC of inhibitor alone (range over isolates)” value in assay [4] (18 clinical isolates) fell in the range of 0.25 to 4 µg/mL. The molecule also returned a Ki in assay [5] of 103 ± 24 nM. In addition, in [6], the k2/K came to 142000 ± 38000 M⁻¹ s⁻¹ and the kinact/KI was determined as 140000 M⁻¹ s⁻¹. Also, the “tn (partition ratio, I:E)” value in assay [7] is reported as 1. In addition, the koff in [8] (jump dilution, read-out: koff) stood at 9.5e-06 s⁻¹. Further, in [8], binding was put at a Kd of 0.07 ± 0.01 nM and the residence time was found to be 1220 ± 213 min.
Consider `CC(C)(O/N=C(\C(=O)N[C@@H]1C(=O)N2C(C(=O)[O-])=C(C[n+]3ccccc3)CS[C@H]12)c1csc(N)n1)C(=O)O` [CAZ, ceftazidime], for which the MIC in [1] (BL alone or BL/BLI: AVI, REL, TAN, DUR 4 mg/L, VAB, XER 8 mg/L, ZID, NAC 1:1) came to 0.25 µg/mL (≈ 0.457 µM); in [1] (ceftazidime alone or with BLI at 4 mg/L), 0.12 µg/mL (≈ 0.22 µM); in assay [2] (E. coli TG1 (OXA-48), ceftazidime alone or with BLI at 4 mg/L), 0.25 µg/mL (≈ 0.457 µM); in [2] (Escherichia coli) it was 0.25 µg/mL (≈ 0.457 µM).
Regarding `O=C(O)c1c(F)ccc2c1OB(O)[C@@H]1C[C@H]21` [Xeruborbactam, xeruborbactam], the MIC in assay [1] (β-lactamase inhibitor alone) came out at 32 µg/mL (≈ 144 µM). This molecule also had an MIC in assay [2] (Escherichia coli) of 32 µg/mL (≈ 144 µM). The “decrease of ertapenem MIC with BLI” value in assay [3] is recorded as 8–256 fold. For the same molecule, the Ki in assay [5] is 18 ± 2 nM. For the same molecule, in [6], the k2/K is 310000 M⁻¹ s⁻¹ and the kinact/KI turned out to be 313000 M⁻¹ s⁻¹. The “tn (partition ratio, I:E)” value in assay [7] is given as 1. For the same molecule, the koff in assay [8] (jump dilution, read-out: koff) was found to be 0.0002 s⁻¹. Moreover, in assay [8], the dissociation constant Kd stood at 0.63 nM and the residence time was found to be 57.7 ± 9.6 min. Also, in assay [9], the “higher inhibitory activity (Ki) for OXA-48 than avibactam” value was 96 fold and the “higher inhibitory activity (Ki) for OXA-48 than vaborbactam” value is on record as 50,000 fold.
For the molecule `O=C(O)C[C@@H]1CC[C@H](NC(=O)Cc2cccs2)B(O)O1` [Vaborbactam, vaborbactam], the MIC in assay [1] (β-lactamase inhibitor alone) is no less than 128 µg/mL. Also, the MIC in assay [2] (Escherichia coli) was no less than 128 µg/mL. This molecule registered a Ki in [5] of 43600 nM. In [7], the “tn (partition ratio, I:E)” value was >3,000. Moreover, in [8], the koff is listed as 2.6 × 10^−4 ± .5 10^−4 s^−1 and the residence time was 44.4 ± 1.6 min.
Take `NCCN[C@H]1CC[C@H](CC(=O)N[C@H]2Cc3cccc(C(=O)O)c3OB2O)CC1` [Taniborbactam, taniborbactam]: the MIC in assay [1] (β-lactamase inhibitor alone) and in assay [2] (Escherichia coli) was no less than 128 µg/mL throughout. Also, the “decrease of ertapenem MIC with BLI” value in assay [3] is 8–256 fold. In assay [4] (clinical isolates), the “reduction of cefepime MICs by BLI” value is listed as 2–512 fold. For the same molecule, the Ki in [5] was 75 ± 15 nM. Further, the “tn (partition ratio, I:E)” value in assay [7] turned out to be 200. For the same molecule, the koff in assay [8] (jump dilution, read-out: koff) was determined as 0.00023 s⁻¹. Moreover, in assay [8], the residence time worked out at 50.2 ± 8.2 min.

The koff is the first-order rate constant of dissociation. As usually defined, the Kd is the constant that tells how readily two partners part at equilibrium.
